The values that follow come from patent publication US7462634B2, “N-(pyridin-2-yl)-sulfonamide derivatives” (Agouron Pharmaceuticals, Inc., priority 2005, dated 2008).

In assay [1] the target is T1, human 11βHSD1 (Homo sapiens, UniProt P28845). The assay is described as follows: 11βHSD1 enzymatic assay, percentage of inhibition. The format is biochemical. As to conditions: inhibitor at 0.1 uM. How it is done:
Percentage of inhibition was determined in a 100 mM Triethanolamine buffer, pH 8.0, 200 mM NaCl, 0.02% n-dodecyl β-D-maltoside and 5mM β-ME. A typical reaction was carried on a Corning® u-bottom 96-well plate and is described as follows: 11βHSD1 enzyme (5 nM, final concentration) was pre-incubated in the presence of the inhibitor and NADPH (500 μM, final concentration) for at least 30 minutes in the assay buffer. When pre-incubation was completed, the reaction was initiated by adding the regenerating system (2 mM Glucose-6-Phosphate, 1 U/mL Glucose-6-Phosphate dehydrogenase, and 6 mM MgCl2, all the concentration reported are final in the assay buffer), and 3H-cortisone (200 nM, final concentration). After 60 minutes, 60 μL of the assay mixture was transferred to a second 96-well plate and mixed with an equal volume of dimethylsulfoxide to stop the reaction. A 15 μL aliquot from the reaction mixture was loaded into a C-18 column (Polaris C18-A, 50×4.6 mm, 5μ, 180 Angstrom from Varian) connected to an automated High-throughput Liquid Chromatography instrument developed by Cohesive Technologies commercially available from Franklin, Mass., with a β-RAM model 3 Radio-HPLC detector from IN/US commercially available from Tampa, Fla. The substrate and product peaks were separated by using an isocratic mixture of 43:57 methanol to water (v/v) at a flow rate of 1.0 mL/min.
Percent Inhibition was calculated based on the following equation: (100−(3H-Cortisol peak area with inhibitor/3Hcortisol peak area without inhibitor)×100).
[1,2-3H]-cortisone is commercially available from American Radiolabeled Chemicals Inc. of St. Louis, Mo. USA. NADPH while Glucose-6-Phosphate and Glucose-6-Phosphate dehydrogenase was purchased from Sigma®.

In assay [2] the target is T1, human 11βHSD1. Kind of assay: 11βHSD1 enzymatic assay (Kiapp determination). The format is biochemical. How it is done: The 11βHSD1 assay was performed in a 100 mM Triethanolamine buffer pH 8.0, containing 200 mM NaCl, 0.02% n-dodecyl β-D-maltoside, 5% glycerol, 5 mM β-mercaptoethanol. A typical reaction for the determination of Kiapp values was carried at room temperature in a Corning® u-bottom 96-well plate and is described as follows: 11βHSD1 enzyme (5 nM, final concentration) was pre-incubated in the presence of the inhibitor and NADPH (500 μM, final concentration) for at least 30 minutes in the assay buffer. When pre-incubation was completed, the reaction was initiated by adding the regenerating system (2 mM Glucose-6-Phosphate, 1 U/mL Glucose-6-Phosphate dehydrogenase, and 6 mM MgCl2, all the concentration reported are final in the assay buffer), and 3H-cortisone (200 nM, final concentration). After 60 minutes, 60 μL of the assay mixture was transferred to a second 96-well plate and mixed with an equal volume of dimethylsulfoxide to stop the reaction. A 15 μL aliquot from the reaction mixture was loaded into a C-18 column (Polaris C18-A, 50×4.6 mm, 5μ, 180 Angstrom from Varian) connected to an automated High-throughput Liquid Chromatography instrument developed by Cohesive Technologies, commercially available from Franklin, Mass. USA, with a β-RAM model 3 Radio-HPLC detector from IN/US, commercially available from Tampa, Fla. USA. The substrate and product peaks were separated by using an isocratic mixture of 43:57 methanol to water (v/v) at a flow rate of 1.0 mL/min.
The initial reaction velocities were measured by stopping the reaction at 60 min and by measuring the area of product formation in the absence and the presence of various concentrations of inhibitors. The Kiapp values were determined using the equation for tight-binding inhibitor developed by Morrison, J F. (Morrison J F. Biochim Biophys Acta. 1969; 185: 269-86):
Where vi, and vo are the rates of cortisol formation in the presence and in the absence of inhibitor, respectively, I is the inhibitor concentration and E is the 11βHSD1 concentration in the assay buffer. All the concentrations reported are the final concentrations in the assay buffer
See also Morrison, J. F., “Kinetics of the reversible inhibition of enzyme-catalysed reactions by tight-binding inhibitors,” Biochim Biophys Acta., 1969; 185: 269-86.

Assay [3] addresses T1, human 11βHSD1. Kind of assay: Human Fa2N-4 immortalized cell-based assay (cortisol accumulation). Conditions: Fa2N-4 human hepatocyte-derived cells, cortisol EIA, 5 μM cortisone, overnight. Here is the method: Human Fa2N-4 Immortalized Cell-Based Assay
Fa2N4 is a cell line derived from human hepatocytes, developed by MultiCell Technologies, Inc. (U.S. Pat. No. 6,107,043), and commercialized by XenoTech LLC via an exclusive license. […] Inhibition of 11βHSD1 enzyme activity was assessed in this cell model by measuring decrease in cortisol (enzyme product) accumulation in cultures co-treated with cortisone (enzyme substrate) and the potential enzyme inhibitor. Cortisol signal was quantitatively determined in the supernatant of treated cells by means of the Correlate-Enzyme Immunoassay (EIA)™Cortisol kit (Assay Designs, Inc.).
Cells were plated in 96 Well Flat Bottom Collagen-coated Microplates, 20,000 cell/well, in 200 μl/well MFE™ (Multi-functional Enhancing—XenoTech, LLC) medium, containing antibiotics (penicillin-streptomycin) and supplemented with 10% of heat inactivated fetal bovine serum. Plates were incubated at 37° C., 5% CO2 overnight. The following day, and before addition of cortisone and inhibitor compounds, medium was changed to Hepatocyte Basal Medium (HBM—Cambrex Bio ScienceWalkersVille, Inc) containing only antibiotics. Thirty-minute pre-incubation with various concentrations of inhibitor compounds (20 μL/well), was followed by addition of 5 μM Cortisone (20 μL/well), and cells were incubated at 37° C., 5% CO2 overnight. At the end of the incubation, 100 μL of each supernatant was analyzed for cortisol content using the Cortisol-EIA kit from Assay Designs, following manufacturers' instructions. Plates were read on a plate reader (Spectra MAX PLUS—Molecular Devices Corporation) at 405 nm, with correction at 580 nm. All results were compared to 100% activation control, i.e. cells treated only with cortisone (no inhibitors added).

Assay [4] has as its target T1, human 11βHSD1. Kind of assay: HEK293-11βHSD1/GRE-Luciferase cell-based assay. On the set-up: expressed in transfected cells. Conditions: HEK293 cells over-expressing human 11βHSD1, GRE-luciferase readout, cortisone substrate, 6 h; read-out: HEK EC50. How it is done:
HEK293-11 βHSD1/GRE-Luciferase Cell-Based Assay
Inhibition of 11βHSD1 enzyme activity was also measured using human kidney HEK293 stable transfected cells, over-expressing human 11βHSD1, and a reporter plasmid containing DNA sequences for specific recognition of glucocorticoid-activated glucocorticoid receptors (GRE), using a method similar to that described in Bujalska et al, Human 11β-hydroxysteroid dehydrogenase: Studies on the stably transfected isoforms and localization of the type 2 isozyme within renal tissue, Steroids, 62(1), […], 77-82 . These sequences were fused to a luciferase reporter gene (Luc) allowing for quantification of 11 βHSD1 enzyme modulation. […] Cortisol (but not cortisone) binds and activates glucocorticoid receptors (GR), which will result in activation of luciferase and production of light (assay readout). A compound with the capability of inhibiting 11βHSD1 will reduce the luciferase signal, as compared to the cortisone control (enzyme substrate).
Cells were plated in 384 Well Flat Bottom White Polystyrene TC-Treated Microplates, at 20,000 cell/well at a volume of 40 μl/well, in serum-free DME Medium. Plates were incubated at 37° C., 5% CO2 overnight before addition of inhibitor compounds. Different concentrations of inhibitor compounds were added in 10% (v/v) dimethylsulfoxide (5 μL/well), followed by addition of 3 μM Cortisone (5 μL/well), and cells were incubated at 37° C. (5% CO2) for six hours. At the end of the incubation, 25 μL/well SteadyLite HTS were added and plates were incubated 10min at room temp on shaker. Plates were then read on Top Count using 384HSD1 program. The concentration of inhibitor compound causing 50% inhibition of light signal was determined via a custom made Excel Macro. All results were compared to 100% activation control, i.e. cells treated only with cortisone (no inhibitors added).

Each structure is given as a SMILES string.

T1 sequence (P28845 whole entry): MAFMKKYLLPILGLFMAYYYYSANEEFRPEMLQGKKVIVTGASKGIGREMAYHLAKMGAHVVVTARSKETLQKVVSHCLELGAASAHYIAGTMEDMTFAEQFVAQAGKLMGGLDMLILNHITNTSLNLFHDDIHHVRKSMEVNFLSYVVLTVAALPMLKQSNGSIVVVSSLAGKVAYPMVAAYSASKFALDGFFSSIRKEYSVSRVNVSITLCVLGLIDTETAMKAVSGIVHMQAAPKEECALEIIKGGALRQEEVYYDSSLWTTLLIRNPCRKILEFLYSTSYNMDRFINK

In the case of `CCNc1cccc(NS(=O)(=O)c2ccc(-c3ccc(C#N)cc3)cc2)n1` [Example 8, 4′-cyano-N-[6-(ethylamino)pyridin-2-yl]biphenyl4-sulfonamide], in assay [1], 0.1 µM produced 88% inhibition. The Ki in assay [2] worked out at 0.0048 µM.
On to `Cc1cc(-c2ccc(C#N)cc2)ccc1S(=O)(=O)Nc1cccc(C(C)O)n1` (single isomer, unassigned; (-)) [4(−), (−)4′-Cyano-N-[6-(1-hydroxyethyl)pyridin-2-yl]-3-methylbiphenyl4-sulfonamide], for which the inhibition at 0.1 µM in assay [1] worked out at 84%.
Regarding `N#Cc1ccc(-c2ccc(S(=O)(=O)Nc3cccc(CCO)n3)cc2)cc1` [Comparative Example A, reference compound], the EC50 in assay [3] worked out at 0.0777 µM; in assay [4], 0.423 µM.
Regarding `CCCCOc1ccc(S(=O)(=O)Nc2cccc(N)n2)cc1` [Example 7, N-(6-aminopyridin-2-yl)-4-butoxybenzenesulfonamide], the inhibition at 0.1 µM in assay [1] was 100%. Also, the Ki in assay [2] came out at 0.0038 µM.
As to `CCC(O)c1cccc(NS(=O)(=O)c2ccc(-c3ccc(C#N)cc3)cc2)n1` (single isomer, unassigned; (-)) [3(−), (−)4′-cyano-N-[6-(1-hydroxypropyl)pyridin-2-yl]biphenyl-4-sulfonamide], the “% inh @ 0.1 uM” value in assay [1] stood at 59%.
As for `CCC(O)c1cccc(NS(=O)(=O)c2ccc(-c3ccc(C#N)cc3)cc2)n1` (single isomer, unassigned; (+)) [3(+), (+)-4′-cyano-N-[6-(1-hydroxypropyl)pyridin-2-yl]biphenyl-4-sulfonamide], the values for the EC50 in assay [3] and in assay [4] were 0.0116 µM and 0.0507 µM, respectively. Also, the “% inh @ 0.1 uM” value in assay [1] was 97.9%. Besides, the Ki in assay [2] amounted to 0.00519 µM.
`Cc1cc(N)nc(NS(=O)(=O)c2sc(-c3ccc(C#N)cc3)nc2C)c1` [Example 1, N-(6-amino-4-methylpyridin-2-yl)-2-(4-cyanophenyl)-4-methyl-1,3-thiazole-5-sulfonamide] came in with an inhibition at 0.1 µM in assay [1] of 100%. In assay [2], this molecule returned a Ki of 0.0018 µM.
As to `Cc1cc(-c2ccc(C#N)cc2)ccc1S(=O)(=O)Nc1cccc(C(C)O)n1` (single isomer, unassigned; (+)) [4(+), (+)4′-Cyano-N-[6-(1-hydroxyethyl)pyridin-2-yl]-3-methylbiphenyl4-sulfonamide], the EC50 was determined as 0.00786 µM in assay [3] and 0.0231 µM in assay [4]. Also, the inhibition at 0.1 µM in assay [1] came out at 100%. This molecule also returned a Ki in assay [2] of 0.0027 µM.
For `CC(O)c1cccc(NS(=O)(=O)c2ccc(-c3ccc(C#N)cc3)cc2)n1` (single isomer, unassigned; (+)) [2(+), (+)-4′-Cyano-N-[6-(1-hydroxyethyl)pyridin-2-yl]biphenyl4-sulfonamide], the values for the EC50 in assay [3] and in assay [4] were 0.056 µM and 0.16 µM, respectively. Besides, the “% inh @ 0.1 uM” value in assay [1] is reported as 85%. In assay [2], this molecule had a Ki of 0.019 µM.
`Cc1cc(S(=O)(=O)Nc2cccc(N)n2)c(F)cc1Cl` [Example 5, N-(6-aminopyridin-2-yl)-4-chloro-2-fluoro-5-methylbenzenesulfonamide] had an inhibition at 0.1 µM in assay [1] of 93%. Also, the Ki in assay [2] is 0.0097 µM.
The like results for `Cc1cc(N)nc(NS(=O)(=O)c2cc(C)c(Cl)cc2F)c1` [Example 6, N-(6-amino-4-methylpyridin-2-yl)-4-chloro-2-fluoro-5-methylbenzenesulfonamide] were, in that order, 98% and 0.0028 µM.
Regarding `CC(O)c1cccc(NS(=O)(=O)c2ccc(-c3ccc(C#N)cc3)cc2)n1` (single isomer, unassigned; (-)) [2(−), (−)4′-Cyano-N-[6-(1-hydroxyethyl)pyridin-2-yl]biphenyl4-sulfonamide], the “% inh @ 0.1 uM” value in assay [1] was 53%.
Regarding `N#Cc1ccc(-c2ccc(S(=O)(=O)Nc3cccc(CO)n3)cc2)cc1` [Example 9, 4′-cyano-N-[6-(hydroxymethyl)pyridin-2-yl]biphenyl-4-sulfonamide], the EC50 was found to be 0.0218 µM in assay [3] and 0.059 µM in assay [4]. The molecule also showed an inhibition at 0.1 µM in assay [1] of 100%. The Ki in assay [2] turned out to be 0.0028 µM.
